Test results: the supplement of paper PMC11208160

Test: recombinant UMI read abundance after kanamycin selection (control-corrected) (log10(CPM+1)); higher = more efficient recombination; extreme values may be limits of the assay; sequences stand for … in AGTGCAGAGAAAATCGGCCAGTTTTCTCTGCCTGCAGTCCGCATGCCGTGGGACCCCTTGGGTTCTAACCTGTTGCCTAGATTTATGCAGCGGACTGCCTTTCTCCCAAAGTGATAAACCGG…AGGTTGGTTTCACT; site = the 11-nt donor
Outline: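 Each donor and donor-binding-loop pair was tracked by a 12-nt UMI on a plasmid carrying a promoterless kanamycin gene. With a second plasmid supplying a fixed target and T7-inducible IS621 bridge recombinase, the pool was plated in Escherichia coli on IPTG (0.07 mM) plus kanamycin or unselected. Sequencing of recombinant UMIs across the donor–target junction gave counts expressed as log10(CPM+1) after replicate averaging and control-derived scaling.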
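Also: IS621 bridge recombinase in Escherichia coli cells against a fixed T5 target plasmid.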

TGAAGCTCATGGACCGGTTTTCCCGGTAATCCGTATTTGGG (site TGAAGCTCTCC)
recombinant UMI read abundance (log10): 0.0156

TGACAACCATGGACCGGTTTTCCCGGTAATCCGTATTTGCC (site TGACAACCTGG)
recombinant UMI read abundance (log10): 0

TGACACCCATGGACCGGTTTTCCCGGTAATCCGTATTTGAA (site TGACACCCTTT)
recombinant UMI read abundance (log10): 0.0711

TGACCGGCATGGACCGGTTTTCCCGGTAATCCGTATTTGGC (site TGACCGGCTGC)
recombinant UMI read abundance (log10): 1.25

TGACCGGCATGGACCGGTTTTCCCGGTAATCCGTATTTGGC (site TGCCCGGCTGC)
recombinant UMI read abundance (log10): 0

TGACCGGCATGGACCGGTTTTCCCGGTAATCCGTATTTGGC (site TGGCCGGCTGC)
recombinant UMI read abundance (log10): 0

TGACCGGCATGGACCGGTTTTCCCGGTAATCCGTATTTGGC (site TGTCCGGCTGC)
recombinant UMI read abundance (log10): 0

TGACGGTCATGGACCGGTTTTCCCGGTAATCCGTATTTGAA (site TGACGGTCTTT)
recombinant UMI read abundance (log10): 1.52

TGACTATCATGGACCGGTTTTCCCGGTAATCCGTATTTGCC (site TGACTATCTGG)
recombinant UMI read abundance (log10): 1.54

TGAGCTACATGGACCGGTTTTCCCGGTAATCCGTATTTGCC (site TGAGCTACTGG)
recombinant UMI read abundance (log10): 0.451

TGAGCTTCATGGACCGGTTTTCCCGGTAATCCGTATTTGTA (site TGAGCTTCTTA)
recombinant UMI read abundance (log10): 1.92

TGAGGCACATGGACCGGTTTTCCCGGTAATCCGTATTTGGT (site TGAGGCACTAC)
recombinant UMI read abundance (log10): 0.463

TGAGGTCCATGGACCGGTTTTCCCGGTAATCCGTATTTGAA (site TGAGGTCCTTT)
recombinant UMI read abundance (log10): 0.00722

TGAGTCACATGGACCGGTTTTCCCGGTAATCCGTATTTGAC (site TGAGTCACTGT)
recombinant UMI read abundance (log10): 2.61

TGATAGACATGGACCGGTTTTCCCGGTAATCCGTATTTGCC (site AGATAGACTGG)
recombinant UMI read abundance (log10): 1.96

TGATAGACATGGACCGGTTTTCCCGGTAATCCGTATTTGCC (site CGATAGACTGG)
recombinant UMI read abundance (log10): 2.02

TGATAGACATGGACCGGTTTTCCCGGTAATCCGTATTTGCC (site GGATAGACTGG)
recombinant UMI read abundance (log10): 0

TGATAGACATGGACCGGTTTTCCCGGTAATCCGTATTTGCC (site TGATAGACTGG)
recombinant UMI read abundance (log10): 2.54

TGATCCTCATGGACCGGTTTTCCCGGTAATCCGTATTTGCT (site CGATCATCTAG)
recombinant UMI read abundance (log10): 0.523

TGATCCTCATGGACCGGTTTTCCCGGTAATCCGTATTTGCT (site TGATCCTCTAG)
recombinant UMI read abundance (log10): 1.81

TGATGAGCATGGACCGGTTTTCCCGGTAATCCGTATTTGGG (site TAATGAGCTCC)
recombinant UMI read abundance (log10): 0.0122

TGATGAGCATGGACCGGTTTTCCCGGTAATCCGTATTTGGG (site TCATGAGCTCC)
recombinant UMI read abundance (log10): 0.0102

TGATGAGCATGGACCGGTTTTCCCGGTAATCCGTATTTGGG (site TGATGAGCTCC)
recombinant UMI read abundance (log10): 0.403

TGATGAGCATGGACCGGTTTTCCCGGTAATCCGTATTTGGG (site TTATGAGCTCC)
recombinant UMI read abundance (log10): 0.0217

TGATTAGCATGGACCGGTTTTCCCGGTAATCCGTATTTGGG (site TGATTAGCTCC)
recombinant UMI read abundance (log10): 0

TGCACCACATGGACCGGTTTTCCCGGTAATCCGTATTTGCT (site TGCACCACTAG)
recombinant UMI read abundance (log10): 1.3

TGCACGGCATGGACCGGTTTTCCCGGTAATCCGTATTTGTT (site TGCACGGCTAA)
recombinant UMI read abundance (log10): 0.724

TGCCACCCATGGACCGGTTTTCCCGGTAATCCGTATTTGTT (site AGCCACCCTAA)
recombinant UMI read abundance (log10): 0.00473

TGCCACCCATGGACCGGTTTTCCCGGTAATCCGTATTTGTT (site CGCCACCCTAA)
recombinant UMI read abundance (log10): 0.0165

TGCCACCCATGGACCGGTTTTCCCGGTAATCCGTATTTGTT (site GGCCACCCTAA)
recombinant UMI read abundance (log10): 0.00763

TGCCACCCATGGACCGGTTTTCCCGGTAATCCGTATTTGTT (site TGCCACCCTAA)
recombinant UMI read abundance (log10): 0.0117

TGCCATGCATGGACCGGTTTTCCCGGTAATCCGTATTTGCC (site TGCCATGCTGG)
recombinant UMI read abundance (log10): 0.0153

TGCCCAACATGGACCGGTTTTCCCGGTAATCCGTATTTGGT (site TGCCCAACTAC)
recombinant UMI read abundance (log10): 0.06

TGCCCTGCATGGACCGGTTTTCCCGGTAATCCGTATTTGTT (site TGCCCTGCTAA)
recombinant UMI read abundance (log10): 0.0362

TGCCTATCATGGACCGGTTTTCCCGGTAATCCGTATTTGTT (site TGCCTATCTAA)
recombinant UMI read abundance (log10): 0.0105

TGCCTCGCATGGACCGGTTTTCCCGGTAATCCGTATTTGGG (site TGCCTCGCTCC)
recombinant UMI read abundance (log10): 0.0166

TGCGAGCCATGGACCGGTTTTCCCGGTAATCCGTATTTGAA (site TGCGAGCCTTT)
recombinant UMI read abundance (log10): 0.00414

TGCGAGGCATGGACCGGTTTTCCCGGTAATCCGTATTTGTA (site TGCGAGGCTTA)
recombinant UMI read abundance (log10): 1.41

TGCGCTTCATGGACCGGTTTTCCCGGTAATCCGTATTTGGG (site TGCGCTTCTCC)
recombinant UMI read abundance (log10): 0.0195

TGCGGACCATGGACCGGTTTTCCCGGTAATCCGTATTTGCA (site TGCGGACCTTG)
recombinant UMI read abundance (log10): 0

TGCGGACCATGGACCGGTTTTCCCGGTAATCCGTATTTGCT (site TGCGGACCTAG)
recombinant UMI read abundance (log10): 0.00621

TGCGTGACATGGACCGGTTTTCCCGGTAATCCGTATTTGAT (site TGCGTGACTAT)
recombinant UMI read abundance (log10): 1.94

TGCGTGTCATGGACCGGTTTTCCCGGTAATCCGTATTTGCC (site TGCGTGTCTGG)
recombinant UMI read abundance (log10): 2.33

TGCTATACATGGACCGGTTTTCCCGGTAATCCGTATTTGAT (site TGCTATACTAT)
recombinant UMI read abundance (log10): 0.285

TGCTCAGCATGGACCGGTTTTCCCGGTAATCCGTATTTGTT (site TGCTCAGCTAA)
recombinant UMI read abundance (log10): 0

TGCTCCCCATGGACCGGTTTTCCCGGTAATCCGTATTTGTA (site TGATCCCCTTA)
recombinant UMI read abundance (log10): 0.0151

TGCTCCCCATGGACCGGTTTTCCCGGTAATCCGTATTTGTA (site TGCTCCCCTTA)
recombinant UMI read abundance (log10): 0.00702

TGCTCCCCATGGACCGGTTTTCCCGGTAATCCGTATTTGTA (site TGGTCCCCTTA)
recombinant UMI read abundance (log10): 0.00608

TGCTCCCCATGGACCGGTTTTCCCGGTAATCCGTATTTGTA (site TGTTCCCCTTA)
recombinant UMI read abundance (log10): 0.00224

TGCTCCGCATGGACCGGTTTTCCCGGTAATCCGTATTTGTG (site TGCTCCGCTCA)
recombinant UMI read abundance (log10): 0.265

TGCTGCACATGGACCGGTTTTCCCGGTAATCCGTATTTGAA (site TGCTGCACTTT)
recombinant UMI read abundance (log10): 0.0328

TGCTGCTCATGGACCGGTTTTCCCGGTAATCCGTATTTGGT (site TGCTGCTCTAC)
recombinant UMI read abundance (log10): 0.182
